# Read-outs that look alike come from different tables or passages of the source.
# What was measured:
# [1] = system: LUC reporter gene under the control of the PPARα 5′-flanking and promoter region; experiment: LUC reporter gene activity in transiently transfected COS-1 cells (pMT-hGR); format: cell-based, Monkey; parameters: gene activation less than fluticasone propionate / luciferase activity/β-galactosidase (in percent (%) of Fluticasone propionate): concentration or dose not given beside the values; settings: for luciferase activity/β-galactosidase (in percent (%) of Fluticasone propionate): COS-1 cells, harvested after 72 h
# Procedure: Monkey kidney COS-1 cells (ATCC CRL 1650) were grown in Dulbecco's modified Eagle's medium (Gibco BRL, Grand Island, N.Y.) as described elsewhere (9). Transient transfections of COS-1 cells were performed as described elsewhere (10). The cells were plated at a density of 2×10^5 cells/well. Each well received 5 μg test plasmid, 5 μg β-galactosidase control plasmid as an internal control and either 2 μg expression plasmid, pMT-hGR or pGL3-basic as carrier. Plasmid details: The mouse PPARα gene is described elsewhere (11). Vectors expressing the LUC reporter gene under the control of the PPARα5′-flanking and promoter region were constructed in the pGL3-LUC vector (Promega). The PPARα 5′-flanking sequence between −2800 bp and +100 bp was cloned into NheI digested pGL3-LUC to generate the PPAR (−2800/+100) LUC plasmid Each transfection was performed in triplicates. The cells were transfected 24 h after plating together with fresh medium containing ligand. After 72 h cells were harvested, cytosol extracts were prepared and LUC activities were measured according to the Promega protocol. Results were normalized against β-galactosidase activities measured by incubating 100 μl extract with 0.28 mg o-nitrophenyl-D-galactoside (ONPG) in 50 mM phosphate buffer pH 7.0, 10 mM KCl, 1 mM MgCl2 for 30 min at 30° C. and reading absorbance at 420 nm.
# U937 cells = experiment: CellTiter 96 Non-Radioactive cell proliferation (MTS) assay, 48 h; format: cell-based, human; settings: for IC50: read-out: U937 cells, IC50 μM ± SD
# Procedure: (§1) The U937 and THP-1 cell lines were seeded, 20 000 cells per well, in 96-well-plates. 50 μl cell culture medium was added to each well. At the same time test compounds were added in 5 different concentrations and incubated for 48 hours. The CellTiter 96® Non-Radioactive cell proliferation assay (Promega) was used to study the cytotoxicity of test compounds in these cells. This assay is a colorimetric method for determining the number of viable cells in proliferation or chemosensitivity assays. It is composed of solutions of a novel tetrazolium compound (3-(4,5-dimethylthiazol-2-yl)-5-(3-carboxymethoxyphenyl)-2-(4-sulfophenyl)-2H-tetrazolium, inner salt; MTS) and an electron coupling reagent (phenazine methosulfate; PMS). MTS is bioreduced by cells into a formazan product that is soluble in tissue culture medium. The absorbance of the formazan at 490 nm can be measured directly from 96 well assay plates without additional processing. The quantity of formazan product as measured by the amount of 490 nm absorbance is directly proportional to the number of living cells in culture (IC50 values). The test compounds were fluticasone propionate and fluticasone elaidic acid derivative.
# THP-1 cells = experiment: as above; format: cell-based, human; settings: for IC50: THP1 cells, 48 hours incubation, read-out: THP1 cells, IC50 μM ± SD
# Procedure: as §1
# GM-CSF release = experiment: Inhibition of IL-1β-stimulated GM-CSF release in A549 TRE cells; format: cell-based; settings: for IC50: IL-1β-stimulated, 24 hours exposure; for fold more potent inhibition of GM-CSF release compared to fluticasone propionate: versus fluticasone propionate
# Procedure: IL-1β-stimulation causes an increase in granulocyte-macrophage colony-stimulating factor (GM-CSF) release after 24 hours in A549 TRE (AP-1 regulation) cells. Inhibition of the GM-CSF release is measured after 24 hours exposure to a test compound.
# GRE-luciferase = experiment: Induction of GRE-luciferase activity in stably transfected A549 GRE-luciferase cells; format: cell-based
# [2] = listed as fluticasone elaidic acid ester derivative
"IC50 (U937 cells; Homo sapiens, U-937, 48 hours incubation) [µM]","IC50 (THP-1 cells; Homo sapiens, THP-1) [µM]",IC50 (GM-CSF release; Homo sapiens) [nM],"EC50 (GRE-luciferase; Homo sapiens, read-out: EC50 of induction of GRE-luciferase reporter activity) [nM]",Compound,luciferase activity/β-galactosidase (in percent (%) of Fluticasone propionate) [1] [%],luciferase activity/β-galactosidase (in percent (%) of Fluticasone propionate) ([1]; listed as flumethasone elaidic acid ester derivative) [%],IC50 (U937 cells; 48 hours incubation) [µM],IC50 (THP-1 cells) [µM],IC50 (GM-CSF release) [nM],fold more potent inhibition of GM-CSF release compared to fluticasone propionate (GM-CSF release) [fold],fold more potent inhibition of GM-CSF release compared to fluticasone propionate (GM-CSF release; listed as flucticasone elaidic acid ester derivative),fold more potent inhibition of GM-CSF release compared to fluticasone propionate (GM-CSF release; [2]) [fold],effect on GRE-luciferase activity (GRE-luciferase),luciferase activity/β-galactosidase (in percent (%) of Fluticasone propionate) ([1]; listed as Fluticasone elaidic acid ester derivative) [%],"luciferase activity/β-galactosidase (in percent (%) of Fluticasone propionate) [1, 2] [%]",gene activation less than fluticasone propionate ([1]; activation as a measure for side effects) [%],fold decrease in side effects (activation of GRE elements) ([1]; versus fluticasone propionate) [fold],activity in U937 cells (resistance) (U937 cells; up to 100 μM),activity in THP1 cells (resistance) (THP-1 cells; up to 100 μM)
,,,,"6α,9α-Difluoro-16α-elaidoyloxy-11β-hydroxy-16α-methyl-3-oxoandrosta-1,4-diene-17β-carboxylic acid",2,2,,,,,,,,,,,,,
,,,,CCCCCCCCC=CCCCCCCCC(=O)OC1(C(=O)SCF)C(C)CC2C3CC(F)C4=CC(=O)C=CC4(C)C3(F)C(O)CC21C (centres unmarked) [Fluticasone elaidic acid derivative],,,1,10,0.014,22,more than 20 fold,22,lack of effect,15,15,85,7,,
> 100,> 100,0.31,0.51,"CCC(=O)O[C@]1(C(=O)SCF)[C@H](C)C[C@H]2[C@@H]3C[C@H](F)C4=CC(=O)C=C[C@]4(C)[C@@]3(F)[C@@H](O)C[C@@]21C [Fluticasone propionate, reference compound]",100,,,,,,,,,,,,,no activity seen up to 100 μM,no activity seen up to 100 μM

# — patent US9428540B2, “Fatty acid esters of glucocorticoids as anti-inflammatory and anti-cancer agents” (priority 2007, dated 2016)
